Laboratory results: article PMC12305662, “Fragment-Based Development of Small Molecule Inhibitors Targeting Mycobacterium tuberculosis Cholesterol Metabolism” (Journal of Medicinal Chemistry, 2025)
In brackets after ≈: the same amount, converted by molar mass. Like-named read-outs stand apart in the source and are kept apart here.

Columns and labels:
Mtb CDC1551 [1] = experiment: Depletion of intracellular ATP, Mtb on glucose; settings: read-out: ATP IC50 (W1) CDC1551, glucose media; glucose as sole carbon source; 1 week
Method: (Mtb) H37Rv or CDC1551 strains were grown in Middlebrook 7H9 broth medium (Difco) supplemented with 0.3 g/L casitone, 0.81 g/L NaCl, 0.05% (v/v) tyloxapol, and either 97 mg/L cholesterol, 4 g/L glucose, or 0.2% glycerol. For inhibitor assays, a 10-fold serial dilution of the test compounds was made in the desired medium in duplicate rows of a 96-well plate. Mtb cells were then added to all the wells at the final concentration of 1 × 10^4 CFU, and plates were incubated at 37 °C for up to 15 days. Minimum inhibitory concentrations (MIC99) were determined using the Microplate Alamar Blue Assay (MABA) on day 15.
BacTiter Glo reagent (Promega) was added to microtiter plates (1:10 dilution) and luminescence was recorded after 15 min of incubation at room temperature. […] Isoniazid or p-amino salicylic acid were used as positive control compounds for all experiments. Reported MIC and IC50 values are the mean of duplicate treatments.

CYP125 [2] = biological target: T1, CYP125 (Mycobacterium tuberculosis, UniProt P9WPP1); experiment: biochemical; format: binding; settings: read-out: KD (μM) CYP125
CYP125 [3] = biological target: T1, CYP125; experiment: LC-MS substrate turnover assay (cholest-4-en-3-one); format: biochemical; settings: for IC50: CYP125 0.5 μM, cholest-4-en-3-one 5 µM, LC-MS, read-out: CYP125A1 IC50; for Ki: estimated by Cheng-Prusoff, cholest-4-en-3-one Km CYP125 = 2.1 µM, read-out: CYP125A1 KI
CYP2C9 = biological target: T2, CYP2C9 (Homo sapiens, UniProt P11712); experiment: Inhibition of human liver microsomal P450s; format: in vitro ADME
T2 construct: from tissue; host or cells: human liver microsomes
Excerpt: (§1) Table S8. Inhibition of human liver microsomal P450s. Inhibition constants (IC 50 values, µM) of
(§2) following substrates: CYP1A-ethoxyresorufin, CYP2C19- mephenytoin, CYP2C9-tolbutamide, CYP2D6-
(§3) dextromethorphan, CYP3A4-midazolam/testosterone.

CYP2D6 = biological target: T3, CYP2D6 (Homo sapiens, UniProt P10635); experiment: Inhibition of human liver microsomal P450s; format: in vitro ADME
T3 construct: from tissue; host or cells: human liver microsomes
Excerpt: as §1, §2, §3

CYP3A4 = biological target: T4, CYP3A4 (Homo sapiens, UniProt P08684); experiment: Inhibition of human liver microsomal P450s; format: in vitro ADME
T4 construct: from tissue; host or cells: human liver microsomes
Excerpt: as §1, §2, §3

CYP1A = biological target: T5, CYP1A (Homo sapiens, UniProt P05177); experiment: Inhibition of human liver microsomal P450s; format: in vitro ADME
T5 construct: from tissue; host or cells: human liver microsomes
T5 sequence (P05177 2-516 limits assumed): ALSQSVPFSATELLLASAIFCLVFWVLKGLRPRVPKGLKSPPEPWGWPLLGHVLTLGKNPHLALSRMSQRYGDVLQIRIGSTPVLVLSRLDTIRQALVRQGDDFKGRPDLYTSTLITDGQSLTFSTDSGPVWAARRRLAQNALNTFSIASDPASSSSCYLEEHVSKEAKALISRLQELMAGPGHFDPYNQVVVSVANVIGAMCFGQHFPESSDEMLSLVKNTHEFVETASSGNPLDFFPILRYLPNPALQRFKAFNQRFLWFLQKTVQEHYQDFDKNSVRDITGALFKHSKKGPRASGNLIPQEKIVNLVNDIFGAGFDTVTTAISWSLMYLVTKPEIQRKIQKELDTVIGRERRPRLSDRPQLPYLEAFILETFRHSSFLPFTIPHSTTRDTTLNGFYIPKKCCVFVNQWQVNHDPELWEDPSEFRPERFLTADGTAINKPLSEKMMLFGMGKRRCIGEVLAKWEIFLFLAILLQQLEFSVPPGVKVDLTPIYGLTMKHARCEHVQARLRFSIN
Excerpt: as §1, §2, §3

CYP2C19 = biological target: T6, CYP2C19 (Homo sapiens, UniProt P33261); experiment: Inhibition of human liver microsomal P450s; format: in vitro ADME
T6 construct: from tissue; host or cells: human liver microsomes
Excerpt: as §1, §2, §3

Mtb CDC1551 [4] = experiment: Depletion of intracellular ATP (BacTiter Glo), Mtb on cholesterol; format: cell-based; settings: Mycobacterium tuberculosis, cholesterol as sole carbon source
Mtb (Erdman) = experiment: Extracellular Mtb (Erdman) growth on cholesterol-supplemented (0.01%) media, MABA; format: cell-based, Mycobacterium tuberculosis; settings: Mycobacterium tuberculosis, ERDMAN, 168 h, MABA 1 week post-compound treatment, mean ± SD n = 3, read-out: mixed media IC50 (Erdman)
Mtb H37Rv [5] = experiment: Extracellular Mtb growth on cholesterol, MABA MIC99; format: cell-based, Mycobacterium tuberculosis; settings: Mycobacterium tuberculosis, H37RV, 336 h; cholesterol as sole carbon source; 2 weeks post-compound treatment; read-out: MABA-MIC99 (W2) H37Rv, cholesterol
[6] = system: Mtb H37Rv pATB45luc in THP-1 macrophages; experiment: microbe, parasite or virus in culture; format: cell-based; settings: Mycobacterium tuberculosis, 120 h, 5 days post-compound treatment, mean ± SD n = 2, read-out: intracellular growth Mtb IC50
[7] = system: uninfected THP-1 macrophages; experiment: THP-1 cytotoxicity (ATPLite); settings: for THP-1 LD50: uninfected THP-1 macrophages, ATP-dependent luminescence, 5 days, top concentration 50 μM
Mtb CDC1551 [8] = experiment: Extracellular Mtb growth on cholesterol, MABA MIC99; format: cell-based, Mycobacterium tuberculosis; settings: Mycobacterium tuberculosis, CDC1551, 336 h; cholesterol as sole carbon source; 2 weeks post-compound treatment; read-out: MABA-MIC99 (W2) CDC1551, cholesterol
Mtb H37Rv [9] = experiment: Depletion of intracellular ATP (BacTiter Glo), Mtb on cholesterol; format: cell-based, Mycobacterium tuberculosis; settings: cholesterol as sole carbon source
[10] = CYP3A4 IC50 (midazolam), substrate midazolam (first value of cell)
[11] = CYP3A4 IC50 (testosterone), substrate testosterone (second value of cell)
[12] = CDC1551, 168 h, 1 week post-compound treatment, read-out: ATP-IC50 (W1) CDC1551, cholesterol
[13] = CDC1551, 336 h, 2 weeks post-compound treatment, read-out: ATP-IC50 (W2) CDC1551, cholesterol
[14] = Mycobacterium tuberculosis, H37RV, 336 h, 2 weeks post-compound treatment, read-out: ATP-IC50 (W2) H37Rv, cholesterol

T4 sequence (P08684 whole entry): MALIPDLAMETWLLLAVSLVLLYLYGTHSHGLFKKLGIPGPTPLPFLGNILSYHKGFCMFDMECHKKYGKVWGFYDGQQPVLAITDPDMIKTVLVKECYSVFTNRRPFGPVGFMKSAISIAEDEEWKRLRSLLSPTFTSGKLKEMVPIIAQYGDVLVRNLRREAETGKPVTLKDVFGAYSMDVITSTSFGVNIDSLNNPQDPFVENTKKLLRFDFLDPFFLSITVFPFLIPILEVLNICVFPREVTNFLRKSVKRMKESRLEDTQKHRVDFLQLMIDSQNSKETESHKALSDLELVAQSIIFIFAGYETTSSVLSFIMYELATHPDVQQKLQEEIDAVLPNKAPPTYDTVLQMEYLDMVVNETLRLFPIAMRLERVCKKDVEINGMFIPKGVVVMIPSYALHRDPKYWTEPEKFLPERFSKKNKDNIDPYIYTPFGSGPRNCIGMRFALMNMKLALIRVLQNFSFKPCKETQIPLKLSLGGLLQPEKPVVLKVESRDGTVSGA
T1 sequence (P9WPP1 whole entry): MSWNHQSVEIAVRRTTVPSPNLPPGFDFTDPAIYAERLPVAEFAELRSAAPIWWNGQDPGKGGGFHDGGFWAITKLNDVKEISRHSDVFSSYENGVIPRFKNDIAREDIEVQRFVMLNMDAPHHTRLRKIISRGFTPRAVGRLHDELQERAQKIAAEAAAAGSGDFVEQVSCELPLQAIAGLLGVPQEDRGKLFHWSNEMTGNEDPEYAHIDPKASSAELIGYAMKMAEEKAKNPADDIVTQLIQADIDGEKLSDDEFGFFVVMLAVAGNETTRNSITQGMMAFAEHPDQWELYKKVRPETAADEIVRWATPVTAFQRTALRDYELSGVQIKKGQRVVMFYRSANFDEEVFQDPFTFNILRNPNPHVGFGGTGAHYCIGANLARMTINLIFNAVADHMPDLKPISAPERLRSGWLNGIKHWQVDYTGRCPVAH
T6 sequence (P33261 whole entry): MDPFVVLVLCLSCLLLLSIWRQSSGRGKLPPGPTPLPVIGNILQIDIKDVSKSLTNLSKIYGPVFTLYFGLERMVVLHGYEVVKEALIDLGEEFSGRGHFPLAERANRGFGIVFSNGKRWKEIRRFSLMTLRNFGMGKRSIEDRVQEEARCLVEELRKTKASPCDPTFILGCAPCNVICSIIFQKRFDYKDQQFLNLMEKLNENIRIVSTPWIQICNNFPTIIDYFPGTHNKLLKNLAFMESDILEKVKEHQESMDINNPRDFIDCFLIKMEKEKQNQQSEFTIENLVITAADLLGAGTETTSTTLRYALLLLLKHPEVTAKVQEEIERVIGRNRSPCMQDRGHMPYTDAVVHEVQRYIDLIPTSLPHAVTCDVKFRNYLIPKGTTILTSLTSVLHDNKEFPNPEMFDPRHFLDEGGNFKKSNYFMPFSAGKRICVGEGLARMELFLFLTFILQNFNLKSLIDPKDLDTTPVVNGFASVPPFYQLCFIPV
T3 sequence (P10635 whole entry): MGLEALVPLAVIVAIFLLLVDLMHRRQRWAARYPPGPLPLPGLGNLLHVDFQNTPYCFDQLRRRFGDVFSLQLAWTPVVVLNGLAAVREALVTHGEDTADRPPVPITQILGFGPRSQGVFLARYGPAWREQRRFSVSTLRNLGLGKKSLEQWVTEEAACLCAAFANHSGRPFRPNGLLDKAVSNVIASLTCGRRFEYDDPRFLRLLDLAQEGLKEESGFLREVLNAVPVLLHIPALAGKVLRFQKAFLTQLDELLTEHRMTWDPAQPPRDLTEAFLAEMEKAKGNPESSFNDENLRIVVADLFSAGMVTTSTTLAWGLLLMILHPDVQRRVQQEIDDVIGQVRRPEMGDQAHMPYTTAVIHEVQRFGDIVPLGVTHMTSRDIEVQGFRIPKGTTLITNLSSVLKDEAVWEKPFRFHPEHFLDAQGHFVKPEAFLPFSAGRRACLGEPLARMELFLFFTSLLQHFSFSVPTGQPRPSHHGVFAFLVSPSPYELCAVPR
T2 sequence (P11712 whole entry): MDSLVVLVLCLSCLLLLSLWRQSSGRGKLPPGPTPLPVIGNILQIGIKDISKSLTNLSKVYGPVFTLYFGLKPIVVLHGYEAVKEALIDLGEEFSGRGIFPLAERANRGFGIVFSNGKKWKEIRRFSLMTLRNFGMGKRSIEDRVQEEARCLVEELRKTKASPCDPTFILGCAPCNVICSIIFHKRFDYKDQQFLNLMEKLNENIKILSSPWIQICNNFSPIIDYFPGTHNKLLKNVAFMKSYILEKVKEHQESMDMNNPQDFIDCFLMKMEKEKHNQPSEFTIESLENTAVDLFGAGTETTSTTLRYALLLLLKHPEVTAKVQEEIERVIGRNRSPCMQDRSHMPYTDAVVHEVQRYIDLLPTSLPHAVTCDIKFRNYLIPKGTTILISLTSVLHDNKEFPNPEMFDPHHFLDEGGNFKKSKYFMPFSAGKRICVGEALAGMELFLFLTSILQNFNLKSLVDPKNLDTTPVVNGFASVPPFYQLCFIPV

SMILES | IC50 (Mtb CDC1551 [1]) [nM] | Kd (CYP125 [2]) [µM] | IC50 (CYP125 [3]) [nM] | Ki (CYP125 [3]) [nM] | IC50 (CYP2C9) [nM] | IC50 (CYP2D6) [nM] | IC50 (CYP3A4; [10]) [nM] | IC50 (CYP3A4; [11]) [nM] | IC50 (CYP1A) [nM] | IC50 (CYP2C19) [nM] | IC50 (Mtb CDC1551 [4]; [12]) [nM] | IC50 (Mtb CDC1551 [4]; [13]) [nM] | IC50 (Mtb (Erdman)) [nM] | MIC99 (Mtb H37Rv [5]) [µM] | IC50 [6] [nM] | THP-1 LD50 [7] [µM] | MIC99 (Mtb CDC1551 [8]) [µM] | IC50 (Mtb H37Rv [9]; [14]) [nM] | further results
O=C(Nc1ccc(Cc2ccncc2)cc1)[C@H](Cc1c[nH]c2ccccc12)NCc1ccccc1 [5d, (S)-2-(Benzylamino)-3-(1H-indol-3-yl)-N-(4-(pyridin-4-ylmethyl)phenyl)propanamide] | 19000 | 0.072 ± 0.026 | 790 ± 90 | 230 | 140 | 460 | 520 | 1490 | 110 | < 100 | 4700 | 38000 | 18000 ± 3000 | 25 (≈ 11.5 µg/mL) | 2800 ± 200 | 45 | 25 (≈ 11.5 µg/mL) | 4700 | THP-1 cytotoxicity in words ([7]; concentrations up to 50 μM): weakly cytotoxic; IC50 (Mtb H37Rv [9]; Mycobacterium tuberculosis, H37RV, 168 h, 1 week post-compound treatment, read-out: ATP-IC50 (W1) H37Rv, cholesterol): 4700 nM; IC50 (Mtb H37Rv [9]; 1 week post-compound treatment, read-out: ATP-IC50 (W1) H37Rv, cholesterol): < 5000 nM
O=S(=O)(Nc1ccc(Cc2ccncc2)cc1)c1ccc(OC(F)(F)F)cc1 [5k, N-(4-(Pyridin-4-ylmethyl)phenyl)-4-(trifluoromethoxy)benzenesulfonamide] | 19000 | 0.55 ± 0.12 | 910 ± 220 | 270 | 5270 | 180 | 260 | 1250 | 5950 | 3100 | 1200 | 9400 | 22000 ± 2000 | 25 (≈ 10.2 µg/mL) | 13000 ± 180 | 32 | 25 (≈ 10.2 µg/mL) | 2300 | –
